Data from patent US20200407398A1, “Short Proline-Rich Lipopeptide Potentiates Minocycline and Rifampicin Against Multidrug-and Extensively Drug-Resistant Pseudomonas Aeruginosa” (priority 2018, published 2020).
Peptide text beside a SMILES is read from it. * marks the point of attachment. Palmitoyl = CCCCCCCCCCCCCCCC(=O)*

Key:
[1] = tested on: A. baumannii CAN-ICU 63169; format: cell-based
How it was run: (§1)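 CLSI broth microdilution with 2-fold serial dilutions in Mueller-Hinton broth, inoculum 5×10^5 CFU/mL, incubated 18 hours at 37° C. MIC taken as lowest concentration with no visible turbidity, confirmed by absorbance at 590 nm.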

E. coli ATCC 25922 = format: cell-based
How it was run: as §1

[2] = tested on: E. coli CAN-ICU 61714 (gentamicin-resistant); format: cell-based
How it was run: as §1

[3] = tested on: E. coli CAN-ICU 63074 (amikacin-intermediate resistant); format: cell-based
How it was run: as §1

[4] = tested on: E. coli CANWARD-2011 97615 (gentamicin-, tobramycin-, ciprofloxacin-resistant) aac(3′)iia; format: cell-based
How it was run: as §1

E. faecalis ATCC 29212 = format: cell-based
How it was run: as §1

E. faecium ATCC 27270 = format: cell-based
How it was run: as §1

K. pneumoniae ATCC 13883 = format: cell-based
How it was run: as §1

P. aeruginosa ATCC 27853 = format: cell-based
How it was run: as §1

[5] = tested on: P. aeruginosa CAN-ICU 62308 (gentamicin-resistant); format: cell-based
How it was run: as §1

[6] = tested on: P. aeruginosa CANWARD-2011 96846 (gentamicin-, tobramycin-resistant); format: cell-based
How it was run: as §1

[7] = tested on: P. aeruginosa wild-type PAO1; format: cell-based
How it was run: as §1

S. aureus ATCC 29213 = format: cell-based
How it was run: as §1

[8] = tested on: S. maltophilia CAN-ICU 62584; format: cell-based
How it was run: as §1

[9] = tested on: methicillin-resistant S. aureus ATCC 33592; format: cell-based
How it was run: as §1

[10] = tested on: methicillin-resistant S. epidermidis CAN-ICU 61589 (ceftazidime-resistant); format: cell-based; conditions: methicillin-resistant CAN-ICU 61589 (ceftazidime-resistant)
How it was run: as §1

[11] = tested on: methicillin-susceptible Staphylococcus epidermidis CANWARD-2008 81388; format: cell-based; conditions: methicillin-susceptible CANWARD-2008 81388
How it was run: as §1

pig erythrocytes = format: cell-based
How it was run: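 Washed pig erythrocytes in PBS were mixed with 2-fold serial dilutions of peptide and incubated for 1 h at 37° C. Released hemoglobin in the supernatant was read at 570 nm, with PBS and 0.1% Triton X-100 as controls. MHC was the minimum concentration giving 5% hemolysis.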

[12] = tested on: wild-type and MDR/XDR P. aeruginosa clinical isolates; conditions: checkerboard assay; P. aeruginosa
Protocol: We evaluated the activity of SPRLPs in combination with fifteen clinically-used antibiotics against P. aeruginosa. Antibiotics tested included fluoroquinolones (moxifloxacin, ciprofloxacin and levofloxacin), aminoglycosides (gentamicin, tobramycin and amikacin), cephalosporins (ceftazidime and cefotaxime), carbapenems (meropenem and doripenem), aztreonam, rifampicin, minocycline, colistin and fosfomycin. The SPRLPs were screened initially at a fixed concentration of 8 μg/mL (5 μM) in combination with antibiotics against wild-type P. aeruginosa PAO1. We assessed potentiation by at least a four-fold absolute MIC reduction of the antibiotic, after which synergism was further validated by a conventional checkerboard assay. A fractional inhibitory concentration (FIC) index of ≤0.5, 0.5<x≤4 or >4 was interpreted as synergistic, indifferent or antagonistic interaction, respectively (31). FIC index was obtained by adding the FIC values of the antibiotic and the SPRLP adjuvant. FIC of antibiotics was calculated by dividing the MIC of the antibiotic in the presence of the adjuvant by the MIC of the antibiotic alone. Similarly, the FIC of adjuvant was calculated via dividing the MIC of the adjuvant in the presence of the antibiotic by the MIC of the adjuvant alone.
Isolates used in this study were either obtained from the American Type Culture Collection (ATCC), the Canadian National Intensive Care Unit (CAN-ICU) surveillance study (27) or the Canadian Ward Surveillance (CANWARD) study (28). Clinical isolates belonging to the CAN-ICU and CANWARD studies were recovered from patients suffering a presumed infectious disease entering or admitted in a participating medical center across Canada during the time of study. MDR P. aeruginosa strains in this study refer to those that are resistant to aminoglycosides, fluoroquinolones, cephalosporins, and carbapenems while XDR strains are those that are resistant to aminoglycosides, fluoroquinolones, cephalosporins, carbapenems, aztreonam and penicillin+β-lactamase inhibitor combination (39, 40).
(§2) Microbroth dilution susceptibility test following the Clinical and Laboratory Standards Institute (CLSI) guidelines (32) was performed to assess the in vitro antibacterial activity of SPRLPs. Overnight grown bacterial cultures were diluted in saline to achieve a 0.5 McFarland turbidity, followed by 1:50 dilution in Mueller-Hinton broth (MHB) for inoculation to a final concentration of 5×10^5 colony forming units/mL. The assay was done on a 96-well plate to which the agents of interest were 2-fold serially diluted in MHB and incubated with equal volumes of inoculum at 37° C. for 18 hours. MIC was determined as the lowest concentration to inhibit visible bacterial growth in form of turbidity, which was confirmed using EMax Plus microplate reader (Molecular Devices, USA) at a wavelength of 590 nm. The well containing MHB broth with or without bacterial cells was used as positive or negative control, respectively.
The assay was performed on a 96-well plate, to which the agents of interest was 2-fold serially diluted in working MHB. Prior to serial dilution, SPRLP was added to the working MHB media so that a fixed final concentration of 8 μg/mL (5 μM) SPRLP per well was achieved. To ensure that the assay was working, the MIC determination test of the studied antibiotic (without SPRLP) was included on the same plate. Similar MIC results between the assay comparator and an independent MIC determination test (on a different plate) ensured validity of the synergy test. Overnight grown bacterial cultures were diluted in saline to 0.5 McFarland turbidity, followed by 1:50 dilution in MHB (without SPRLP) and inoculation into each well to a final concentration of approximately 5×10^5 colony forming units/mL. Wells containing only MHB (without SPRLP) with or without bacterial cells were used as positive or negative control, respectively.

Gram-positive bacteria = experiment: Microbroth dilution MIC, range over panel; format: cell-based; conditions: against Gram-positive bacteria of the panel
Protocol: (§3) The synthesized SPRLPs were evaluated for their antibacterial potency against a panel of Gram-positive and Gram-negative bacteria (Tables 2 & 3). Some of the included pathogens were collected from patients visiting or admitted to participating Canadian hospitals through the CAN-ICU (27) and CANWARD (28) national surveillance studies. Antibacterial activity was assessed using minimum inhibitory concentration (MIC) against various clinical pathogens.
as §2

[13] = tested on: Gram-negative bacteria E. coli; experiment: Microbroth dilution MIC, range over strains; format: cell-based; conditions: against the E. coli strains of the panel
Protocol: as §3, §2

[14] = tested on: human liver carcinoma HepG2 cells; format: cell-based; conditions: read-out: IC50, inhibition of proliferation
Protocol: The CyQuant Direct cell proliferation assay kit (ThermoFisher, Canada) was used to assess the effect of C12-PRP on cell proliferation according to the manufacturer's protocol. Briefly, human embryonic kidney cells (HEK-293) and HepG2 cells were grown in Dulbecco's Modified Eagle's Medium supplemented with 10% fetal bovine serum. The cells were dispersed into 96-well plates (8000 cells/well in 100 μl ). Wells with media but no cells were used as blanks. After 24 hours, varying concentrations of C12-PRP, colistin and Adriamycin® were added to the wells containing cells but also the blanks. After incubation of the cells with the compounds for 48 hours, the CyQuant Direct detection reagent was added to the wells. Plates were incubated at 37° C. for 1 hour and the fluorescence (Excitation 480nm/Emission 535 nm) was read using a SpectraMax M2e (Molecular Devices, USA). As a positive control, CyQuant Direct detection reagent was added to a plate with untreated cells, incubated for 1 hour followed by fluorescence reading. The number of cells in each well was determined by detaching the cells by trypsin followed by counting on a CoulterZM counter to ensure an approximate equal number of cells per well.

Compound | MIC [1] [µg/mL] | MIC (E. coli ATCC 25922) [µg/mL] | MIC [2] [µg/mL] | MIC [3] [µg/mL] | MIC [4] [µg/mL] | MIC (E. faecalis ATCC 29212) [µg/mL] | MIC (E. faecium ATCC 27270) [µg/mL] | MIC (K. pneumoniae ATCC 13883) [µg/mL] | MIC (P. aeruginosa ATCC 27853) [µg/mL] | MIC [5] [µg/mL] | MIC [6] [µg/mL] | MIC [7] [µg/mL] | MIC (S. aureus ATCC 29213) [µg/mL] | MIC [8] [µg/mL] | MIC [9] [µg/mL] | MIC [10] [µg/mL] | MIC [11] [µg/mL] | MHC (minimum concentration that resulted in 5% red blood cell hemolysis) (pig erythrocytes) [µg/mL] | MIC range (Gram-positive bacteria) [µg/mL] | other results
CCCCCCCCCCCCCCCC(=O)N1CCC[C@H]1C(=O)N[C@@H](CCCNC(=N)N)C(=O)N1CCC[C@H]1C(=O)N[C@@H](CCCNC(=N)N)C(=O)N1CCC[C@H]1C(=O)N[C@@H](CCCNC(=N)N)C(=O)N1CCC[C@H]1C(N)=O [Compound C16-PRP, CH3(CH2)14CO-PRPRPRP-NH2] (Palmitoyl-PRPRPRP-NH2) | 16 | 16 | 8 | 8 | 8 | 16 | 8 | 64 | 32 | 32 | 64 | 32 | 8 | 64 | 16 | 8 | 4 | 16 | 4 to 16 | interaction with minocycline (in words) [12]: indifferent interaction; interaction with rifampicin (in words) [12]: indifferent interaction; MIC range [13]: 8 to 16 µg/mL
CCCCCCCCCCCCCCCC(=O)N1CCC[C@H]1C(=O)N[C@@H](CCCNC(=N)N)C(=O)N1CCC[C@H]1C(=O)N[C@@H](Cc1c[nH]c2ccccc12)C(=O)N1CCC[C@H]1C(=O)N[C@@H](CCCNC(=N)N)C(=O)N1CCC[C@H]1C(N)=O [Compound C16-PWP, CH3(CH2)14CO-PRPWPRP-NH2] (Palmitoyl-PRPWPRP-NH2) | 64 | 32 | 32 | 16 | 64 | 8 | 8 | 64 | 64 | 64 | 64 | 32 | 8 | 64 | 8 | 8 | 4 | 16 | 4 to 8 | 
colistin |  |  |  |  |  |  |  |  |  |  |  |  |  |  |  |  |  |  |  | IC50 [14]: 1.5 µM
